Patent publication US11952364B2, “TRK inhibitors useful as anticancer drugs” (TYLIGAND BIOSCIENCE (SHANGHAI) LIMITED, priority 2018, dated 2024)

Tests used:
[1] = Metabolic stability in liver microsomes (overall statement); assay type: in vitro ADME; settings: statement in words
Description: According to standard methods conventional in the art for in vitro metabolic stability studies, for example those protocols described in Kems, Edward H. and Di Li (2008). Drug-like Properties: Concepts. Structure Design and Methods: from ADME to Toxicity Optimization. San Diego: Academic Press; Di, Li et al., Optimization of a Higher Throughput Microsomal Stability Screening Assay for Profiling Drug Discovery Candidates, J. Biomol. Screen. 2003, 8(4), 453., the metabolic stability test in liver microsomes of the present compound was performed analogously as follows.
The in vitro metabolic stability of the compound in 5 species (mouse, rat, dog, monkey, and human) was evaluated by liver microsomal stability test. 0.1M potassium phosphate buffer solution (pH 7.4, containing 1.0 mM EDTA) was prepared. The test compound and the control compound were prepared into a 10 mM DMSO solution, and then 10 μL of the 10 mM DMSO compound solution was added to 190 μL of acetonitrile to prepare a 500 μM compound solution. […]
The natural logarithm of the residue percentage at each time point was subjected to linearly regression as a factor of incubation time to obtain Slope k, and then the liver microsome clearance rate (CLint^mic) and in vitro half-life (T½) were calculated according to the following formula: […]

[2] = target: P450 3A4 (Homo sapiens (Human), UniProt P08684); assay: Cytochrome P450 inhibition in human liver microsomes; assay type: in vitro ADME
Sequence of P450 3A4 (P08684 whole entry, the tested form may be a part): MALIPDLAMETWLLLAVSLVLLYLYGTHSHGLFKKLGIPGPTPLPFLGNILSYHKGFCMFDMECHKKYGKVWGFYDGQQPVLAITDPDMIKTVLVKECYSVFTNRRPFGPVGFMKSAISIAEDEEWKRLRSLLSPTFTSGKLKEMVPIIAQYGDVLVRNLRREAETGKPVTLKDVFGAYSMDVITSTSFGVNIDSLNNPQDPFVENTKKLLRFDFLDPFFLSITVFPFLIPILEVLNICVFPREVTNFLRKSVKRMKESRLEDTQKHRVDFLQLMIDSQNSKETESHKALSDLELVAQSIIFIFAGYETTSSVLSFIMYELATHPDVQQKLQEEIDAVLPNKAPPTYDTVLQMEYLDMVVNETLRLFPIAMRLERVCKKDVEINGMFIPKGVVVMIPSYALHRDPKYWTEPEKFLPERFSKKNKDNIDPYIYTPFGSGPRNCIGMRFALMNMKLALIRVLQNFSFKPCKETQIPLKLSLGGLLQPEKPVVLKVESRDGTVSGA
Description: The test compounds were evaluated by detecting the metabolism of human liver microsomes for the substrates of different subtypes of Cyp450. The liver microsomes (Sekisui XenoTech, LLC., human liver microsomes, cat. #H0610) were slowly melted on ice, and 0.482 mL of the liver microsome solution (20 mg/mL) was added to 30 mL of 100 mM potassium phosphate solution to prepare a liver microsome working solution with a concentration of 0.316 mg/mL. The test compound and specific inhibitors of different Cyp450 subtypes (as a control) were prepared into 10 mM DMSO solutions, and then 20 μL of the 10 mM DMSO compound solution was added to 180 μL of acetonitrile to obtain a 1 mM compound solution. 2 μL of such 1 mM test compound or inhibitor solution was added to 150 μL of 0.316 mg/mL liver microsome working solution to obtain a 13.16 μM compound working solution. 45.3 mg of NADPH (SIGMA, cat. #V900362) was weighted and added into 13.59 mL of deionized water to prepare a 4 mM NADPH aqueous solution. 0.2 mL of 2 mg/mL internal standard stock solution (dexamethasone in acetonitrile) was added to 1000 mL of acetonitrile (SIGMA, cat. #271004) to prepare a reaction stop solution and stored at 4° C. […] The single point IC50 values were calculated according to the following formula. […]

[3] = system: TRK Fusion-Positive Cancers; settings: cited from earlier work

Row | IC50 [2] [µM] | Structure (SMILES) | metabolic stability in liver microsomes compared with Merestinib [1] | patients had no disease progression ([3]; after 1 year of treatment) [%] | patients still responded to treatment ([3]; after 1 year of treatment) [%] | overall patient response rate (ORR) ([3]; patients, more than ten tumor types) [%] | complete response ([3]; patients) [%] | partial response ([3]; patients) [%]
1 | > 10 | COc1ccc(C(=O)Nc2ccc(Oc3cc4cnn(C)c4cc3-c3cn[nH]c3)c(F)c2)c(=O)n1-c1ccc(F)cc1 [Example 12, N-(3-fluoro-4-(1-methyl-6-(1H-pyrazol-4-yl)-1H-indazol-5-yloxy)phenyl)-1-(4-fluorophenyl)-6-methoxy-2-oxo-1,2-dihydropyridine-3-carboxamide] | significantly improved metabolic stability in liver microsomes |  |  |  |  | 
2 |  | O=C(Nc1cnn2ccc(N3CCC[C@@H]3c3cc(F)ccc3F)nc12)N1CC[C@H](O)C1 [LOXO-101, Larotrectinib, reference compound] |  | 55 | 71 | 75 | 13 | 62
